Data taken from US9513294B2, “Megastokes amino-triazolyl-BODIPY compounds and applications to live neuron staining and human serum albumin FA1 drug site probing” (National University of Singapore, priority 2012, dated 2016).

What was measured:
[1] = Absorbance and fluorescence emission spectra (SpectraMax M2); type: physicochemical; conditions: MKAC compound library; for λmax Abs. (nm): absorbance maximum; for λmax Em. (nm): fluorescence emission maximum
How it was run: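 Spectroscopic data, including quantum yields, were recorded with a SpectraMax M2 instrument and analysed in GraphPrism.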

[2] = Quantum yield measurements versus Acridine Yellow in EtOH; type: physicochemical; conditions: MKAC compound library; quantum yield
How it was run: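 Emission areas integrated over 510–700 nm were compared with Acridine Yellow in ethanol (Φ=0.47), all excited at 460 nm. The comparative equation was normalized to excitation-wavelength absorbance and solvent refractive index.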

| SMILES | λmax Abs. (nm) [1] [nm] | λmax Em. (nm) [1] [nm] | φ (%) [2] [%] |
| --- | --- | --- | --- |
| CCOc1ccccc1CNC1=[N+]2C(=C(c3ccc(NC(C)=O)cc3)c3ccc(-n4cc(C5CCCC5)nn4)n3[B-]2(F)F)C=C1 [MKAC103-5] | 465 | 562 | 18.11 |
| CCOc1ccccc1CNC1=[N+]2C(=C(c3ccc(NC(C)=O)cc3)c3ccc(-n4cc(CC5CCCCC5)nn4)n3[B-]2(F)F)C=C1 [MKAC103-8] | 465 | 562 | 25.32 |
| CCOc1ccccc1CNC1=[N+]2C(=C(c3ccc(NC(C)=O)cc3)c3ccc(-n4cc(CN(C)Cc5ccccc5)nn4)n3[B-]2(F)F)C=C1 [MKAC103-18] | 465 | 560 | 18.63 |
| CCOc1ccccc1CNC1=[N+]2C(=C(c3ccc(NC(C)=O)cc3)c3ccc(-n4cc(CCc5ccccc5)nn4)n3[B-]2(F)F)C=C1 [MKAC103-19] | 464 | 562 | 29.05 |
| CCOc1ccccc1CNC1=[N+]2C(=C(c3ccc(NC(C)=O)cc3)c3ccc(-n4cc(CC(C)C)nn4)n3[B-]2(F)F)C=C1 [MKAC103-43] | 465 | 560 | 22.79 |
| CCCc1cn(-c2ccc3n2[B-](F)(F)[N+]2=C(NCc4ccccc4OCC)C=CC2=C3c2ccc(NC(C)=O)cc2)nn1 [MKAC103-48] | 466 | 562 | 20.07 |
| CCCCCC(O)c1cn(-c2ccc3n2[B-](F)(F)[N+]2=C(NCc4ccccc4OCC)C=CC2=C3c2ccc(NC(C)=O)cc2)nn1 (stereo not drawn) [MKAC103-69] | 465 | 561 | 20.91 |
| CCOc1ccccc1CNC1=[N+]2C(=C(c3ccc(NC(C)=O)cc3)c3ccc(-n4cc(CO)nn4)n3[B-]2(F)F)C=C1 [MKAC103-70] | 464 | 558 | 15.35 |
| COc1ccc(OC)c(CNC2=[N+]3C(=C(c4ccc(NC(C)=O)cc4)c4ccc(-n5cc(C6CC6)nn5)n4[B-]3(F)F)C=C2)c1 [MKAC181-4] | 464 | 562 | 15.43 |
| COc1ccc(OC)c(CNC2=[N+]3C(=C(c4ccc(NC(C)=O)cc4)c4ccc(-n5cc(C6CCCC6)nn5)n4[B-]3(F)F)C=C2)c1 [MKAC181-5] | 464 | 563 | 10.37 |
| COc1ccc(OC)c(CNC2=[N+]3C(=C(c4ccc(NC(C)=O)cc4)c4ccc(-n5cc(CC6CCCCC6)nn5)n4[B-]3(F)F)C=C2)c1 [MKAC181-8] | 465 | 564 | 13.98 |
| COc1ccc(OC)c(CNC2=[N+]3C(=C(c4ccc(NC(C)=O)cc4)c4ccc(-n5cc(CN(C)Cc6ccccc6)nn5)n4[B-]3(F)F)C=C2)c1 [MKAC181-18] | 464 | 561 | 18.28 |
| COc1ccc(OC)c(CNC2=[N+]3C(=C(c4ccc(NC(C)=O)cc4)c4ccc(-n5cc(CCc6ccccc6)nn5)n4[B-]3(F)F)C=C2)c1 [MKAC181-19] | 464 | 561 | 14.0 |
| COc1ccc(OC)c(CNC2=[N+]3C(=C(c4ccc(NC(C)=O)cc4)c4ccc(-n5cc(CC(C)C)nn5)n4[B-]3(F)F)C=C2)c1 [MKAC181-43] | 467 | 562 | 13.79 |
| CCCc1cn(-c2ccc3n2[B-](F)(F)[N+]2=C(NCc4cc(OC)ccc4OC)C=CC2=C3c2ccc(NC(C)=O)cc2)nn1 [MKAC181-48] | 465 | 561 | 11.03 |
| COc1ccc(OC)c(CNC2=[N+]3C(=C(c4ccc(NC(C)=O)cc4)c4ccc(-n5cc(CO)nn5)n4[B-]3(F)F)C=C2)c1 [MKAC181-70] | 465 | 559 | 15.37 |
| CC(=O)Nc1ccc(C2=C3C=CC(N(C)Cc4ccccc4)=[N+]3[B-](F)(F)n3c2ccc3-n2cc(C3CC3)nn2)cc1 [MKAC195-4] | 466 | 582 | 5.45 |
| CC(=O)Nc1ccc(C2=C3C=CC(N(C)Cc4ccccc4)=[N+]3[B-](F)(F)n3c2ccc3-n2cc(C3CCCC3)nn2)cc1 [MKAC195-5] | 467 | 578 | 4.18 |
| CC(=O)Nc1ccc(C2=C3C=CC(N(C)Cc4ccccc4)=[N+]3[B-](F)(F)n3c2ccc3-n2cc(CC3CCCCC3)nn2)cc1 [MKAC195-8] | 466 | 577 | 3.65 |
| CC(=O)Nc1ccc(C2=C3C=CC(N(C)Cc4ccccc4)=[N+]3[B-](F)(F)n3c2ccc3-n2cc(CN(C)Cc3ccccc3)nn2)cc1 [MKAC195-18] | 465 | 575 | 1.85 |
| CC(=O)Nc1ccc(C2=C3C=CC(N(C)Cc4ccccc4)=[N+]3[B-](F)(F)n3c2ccc3-n2cc(CCc3ccccc3)nn2)cc1 [MKAC195-19] | 467 | 577 | 3.78 |
| CC(=O)Nc1ccc(C2=C3C=CC(N(C)Cc4ccccc4)=[N+]3[B-](F)(F)n3c2ccc3-n2cc(CC(C)C)nn2)cc1 [MKAC195-43] | 466 | 580 | 3.48 |
| CCCc1cn(-c2ccc3n2[B-](F)(F)[N+]2=C(N(C)Cc4ccccc4)C=CC2=C3c2ccc(NC(C)=O)cc2)nn1 [MKAC195-48] | 467 | 575 | 2.72 |
| CC(=O)Nc1ccc(C2=C3C=CC(N(C)Cc4ccccc4)=[N+]3[B-](F)(F)n3c2ccc3-n2cc(CO)nn2)cc1 [MKAC195-70] | 464 | 579 | 1.67 |
| CC(=O)Nc1ccc(C2=C3C=CC(N4CCCC4)=[N+]3[B-](F)(F)n3c2ccc3-n2cc(C3CC3)nn2)cc1 [MKAC215-4] | 462 | 576 | 2.35 |
| CC(=O)Nc1ccc(C2=C3C=CC(N4CCCC4)=[N+]3[B-](F)(F)n3c2ccc3-n2cc(C3CCCC3)nn2)cc1 [MKAC215-5] | 463 | 574 | 1.00 |
| CC(=O)Nc1ccc(C2=C3C=CC(N4CCCC4)=[N+]3[B-](F)(F)n3c2ccc3-n2cc(CC3CCCCC3)nn2)cc1 [MKAC215-8] | 462 | 568 | 1.17 |
| CC(=O)Nc1ccc(C2=C3C=CC(N4CCCC4)=[N+]3[B-](F)(F)n3c2ccc3-n2cc(CN(C)Cc3ccccc3)nn2)cc1 [MKAC215-18] | 461 | 569 | 1.54 |
| CC(=O)Nc1ccc(C2=C3C=CC(N4CCCC4)=[N+]3[B-](F)(F)n3c2ccc3-n2cc(CCc3ccccc3)nn2)cc1 [MKAC215-19] | 462 | 567 | 3.41 |
| CC(=O)Nc1ccc(C2=C3C=CC(N4CCCC4)=[N+]3[B-](F)(F)n3c2ccc3-n2cc(CC(C)C)nn2)cc1 [MKAC215-43] | 461 | 565 | 1.83 |
